Source: patent US20100249145A1, “Inhibitors of VEGF Receptor and HGF Receptor Signaling” (Methylgene, Inc., priority 2005, published 2010)
Read-outs that look alike come from different tables or passages of the source. Each block holds one compound with its values, some of them ahead of it.

What was measured:
VEGF receptor KDR = molecular target: T1, VEGF receptor KDR (Homo sapiens, UniProt P35968); assay: In vitro receptor tyrosine kinase assay (DELFIA), VEGF receptor KDR; assay type: biochemical; details: ATP 0.6 uM, enzyme 5 nM
T1 construct: made in house; host or cells: Sf9 cells (Spodoptera frugiperda), recombinant baculovirus
Excerpt: In Vitro Receptor Tyrosine Kinase Assays (c-Met/HGF receptor and VEGF Receptor KDR)
In the case of VEGF receptor KDR a 1.6-kb cDNA corresponding to the catalytic domain of VEGFR2 or KDR (Genbank accession number AF035121 amino acid 806 to 1356) was cloned into the Pst I site of the pDEST20 Gateway vector (Invitrogen) for the production of a GST-tagged version of that enzyme.
The GST-VEGFR2806-1356 protein was expressed in Sf9 cells (Spodoptera frugiperda) upon infection with recombinant baculovirus construct.
The supernatant was loaded onto a GST-agarose column (Sigma) equilibrated with PBS pH 7.3. Following a four column volume (CV) wash with PBS pH 7.3+1% Triton X-100 and 4 CV wash with buffer B (50 mM Tris pH 8.0, 20% glycerol and 100 mM NaCl), bound proteins were step eluted with 5 CV of buffer B supplemented with 5 mM DTT and 15 mM glutathion. […] Final GST-VEGFR2806-1356 protein preparations concentrations were about 0.7 mg/ml with purity approximating 70%.

[1] = molecular target: T2, recombinant human c-Met/HGF receptor (Homo sapiens, UniProt P08581); assay: In vitro receptor tyrosine kinase assay (DELFIA), c-Met/HGF receptor; assay type: biochemical; details: ATP 10 uM, enzyme 25 nM
T2 construct: His tag (histidine tag from pBlueBacHis2A); made in house; host or cells: Hi-5 cells (Trichoplusia ni), recombinant baculovirus

A549 = A549 wound healing inhibition (HGF dependent migration); assay type: cell-based; details: Homo sapiens, Table 31, read-out: A549 wound healing inbib IC50
Excerpt: (§1) HGF has well known activity in terms of inducing scattering and migration (wound healing) (Wells et al., Cell Motil Cytoskeleton. 2005 November 62(3):180-94; Miura et al., Urology 2001 December 58(6):1064-9; Nishimura et al., Int J. Urol. 1998 May 5(3):276-81; Wang et al., Mol Cancer Ther. 2003 November; 2(11):1085-92; and Christensen et al., Cancer Res. 2003 Nov. 1; 63(21):7345-55).

DU145 = DU145 scattering inhibition (HGF dependent scattering); assay type: cell-based; details: Homo sapiens, DU-145, Table 31, read-out: DU145 scattering inhib IC50
Excerpt: as §1

[2] = Table 30, read-out: VEGF(enz.) (IC50)
[3] = Table 30, read-out: C-Met (enz.) (IC50)

T2 sequence (P08581 1078-1337): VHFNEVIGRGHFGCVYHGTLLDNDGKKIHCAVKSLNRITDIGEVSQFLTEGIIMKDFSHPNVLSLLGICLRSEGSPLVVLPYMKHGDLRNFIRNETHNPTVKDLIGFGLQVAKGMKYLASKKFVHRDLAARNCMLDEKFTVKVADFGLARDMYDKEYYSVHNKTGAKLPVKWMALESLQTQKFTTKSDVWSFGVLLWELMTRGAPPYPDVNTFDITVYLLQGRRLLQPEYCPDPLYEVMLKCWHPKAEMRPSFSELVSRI
T1 sequence (P35968 806-1356): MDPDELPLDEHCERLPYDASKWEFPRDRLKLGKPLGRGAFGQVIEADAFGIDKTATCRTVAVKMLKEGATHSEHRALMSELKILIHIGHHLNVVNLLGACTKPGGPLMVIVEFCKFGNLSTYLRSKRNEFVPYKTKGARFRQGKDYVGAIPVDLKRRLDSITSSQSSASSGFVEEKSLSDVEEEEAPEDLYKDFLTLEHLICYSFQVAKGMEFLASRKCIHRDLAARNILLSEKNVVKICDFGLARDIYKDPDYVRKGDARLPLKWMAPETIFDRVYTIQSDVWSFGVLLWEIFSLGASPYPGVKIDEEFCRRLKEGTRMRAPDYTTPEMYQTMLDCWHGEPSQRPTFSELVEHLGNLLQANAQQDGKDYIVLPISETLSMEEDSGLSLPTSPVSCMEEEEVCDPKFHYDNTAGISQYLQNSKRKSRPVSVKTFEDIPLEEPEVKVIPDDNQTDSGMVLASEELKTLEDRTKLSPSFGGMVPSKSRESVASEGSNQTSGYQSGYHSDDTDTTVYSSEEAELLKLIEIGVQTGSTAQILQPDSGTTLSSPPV

SMILES: Cc1ccccc1CC(=O)NC(=S)Nc1ccc(Oc2ccnc3cc(-c4cn(C)cn4)sc23)c(F)c1
- IC50 (VEGF receptor KDR; Table 31, read-out: VEGFR IC50): < 50 nM
- IC50 ([1]; Table 31, read-out: CMet ic50): < 50 nM
- IC50 (A549): < 1000 nM

SMILES: CN(CCO)Cc1ccc(-c2cc3nccc(Oc4ccc(NC(=S)NC(=O)Cc5ccc(F)cc5)cc4F)c3s2)nc1
- IC50 (VEGF receptor KDR; Table 31, read-out: VEGFR IC50): < 50 nM
- IC50 (DU145): < 1000 nM
- IC50 ([1]; Table 31, read-out: CMet ic50): < 50 nM

SMILES: COCCNCc1ccc(-c2cc3nccc(Oc4ccc(NC(=S)NC(=O)Cc5ccc(F)cc5)cc4F)c3s2)c(F)c1
- IC50 (DU145): < 1000 nM
- IC50 (A549): < 1000 nM

SMILES: CCCNCc1ccc(-c2cc3nccc(Oc4ccc(NC(=S)NC(=O)Cc5ccc(F)cc5)cc4F)c3s2)cc1
- IC50 (DU145): < 1000 nM
- IC50 (A549): < 1000 nM

SMILES: Cn1ccc2ncnc(Oc3ccc(NC(=S)NC(=O)Cc4ccccc4)cc3F)c21 [Example 28, 1-(4-(5-Methyl-5H-pyrrolo[3,2-d]pyrimidin-4-yloxy)-3-fluorophenyl)-3-(2-phenylacetyl)thiourea]
- IC50 (VEGF receptor KDR; [2]): > 500 nM
- IC50 [1, 3]: 50 to 250 nM

SMILES: CCn1ccc2ncnc(Oc3ccc(NC(=S)NC(=O)Cc4ccccc4)cc3F)c21 [Example 29, 1-(4-(5-Ethyl-5H-pyrrolo[3,2-d]pyrimidin-4-yloxy)-3-fluorophenyl)-3-(2-phenylacetyl)thiourea]
- IC50 (VEGF receptor KDR; [2]): > 500 nM
- IC50 [1, 3]: 250 to 500 nM

SMILES: O=C(Cc1ccccc1)NC(=S)Nc1ccc(Oc2ccnc3ccsc23)cc1 [Example 188, 2-Phenyl-N-(4-(thieno[3,2-b]pyridin-7-yloxy)phenylcarbamothioyl)acetamide]
- IC50 (VEGF receptor KDR; [2]): > 500 nM

More lines, now with the values ahead:

- IC50 (VEGF receptor KDR; [2]): 50 to 250 nM
SMILES: CNC(=O)c1cc2nccc(Oc3ccc(NC(=S)NC(=O)Cc4ccccc4)cc3F)c2s1 [Example 5, 1-(4-(2-(methylcarbamoyl)thieno[3,2-b]pyridin-7-yloxy)-3-fluorophenyl)-3-(2-phenylacetyl)thiourea]

- IC50 (VEGF receptor KDR; [2]): 50 to 250 nM
SMILES: NC(=O)c1cc2nccc(Oc3ccc(NC(=S)NC(=O)Cc4ccccc4)cc3F)c2s1 [Example 9, 1-(4-(2-carbamoylthieno[3,2-b]pyridin-7-yloxy)-3-fluorophenyl)-3-(2-phenylacetyl)thiourea]

- IC50 (VEGF receptor KDR; [2]): 50 to 250 nM
SMILES: O=C(Cc1ccccc1)NC(=S)Nc1ccc(Oc2ccnc3cc(-c4ncccn4)sc23)c(F)c1 [Example 14, N-(3-Fluoro-4-(2-(pyrimidin-2-yl)thieno[3,2-b]pyridin-7-yloxy)phenylcarbamothioyl)-2-phenylacetamide]

- IC50 (VEGF receptor KDR; [2]): < 50 nM
SMILES: O=C(Cc1ccccc1)NC(=S)Nc1ccc(Oc2ccnc3cc(-c4cccs4)sc23)c(F)c1 [Example 16]

- IC50 (VEGF receptor KDR; [2]): 50 to 250 nM
SMILES: O=C(Cc1ccccc1)NC(=S)Nc1ccc(Oc2ccnc3cc(-c4cccnc4)sc23)c(F)c1 [Example 18]

- IC50 (VEGF receptor KDR; [2]): > 500 nM
SMILES: CC(O)c1cc2nccc(Oc3ccc(NC(=S)NC(=O)Cc4ccccc4)cc3F)c2s1 (stereo not shown) [Example 20, 1-(4-(2-(1-Hydroxyethyl)thieno[3,2-b]pyridin-7-yloxy)-3-fluorophenyl)-3-(2-phenylacetyl)thiourea]

- IC50 (VEGF receptor KDR; [2]): 50 to 250 nM
- IC50 [1, 3]: 50 to 250 nM
SMILES: CNC(=O)c1cc2ncnc(Oc3ccc(NC(=S)NC(=O)Cc4ccccc4)cc3F)c2s1 [Example 25, 1-(4-(6-(Methylcarbamoyl)thieno[3,2-d]pyrimidin-4-yloxy)-3-fluorophenyl)-3-(2-phenylacetyl)thiourea]

- IC50 (VEGF receptor KDR; [2]): 50 to 250 nM
- IC50 [1, 3]: 50 to 250 nM
SMILES: CON(C)C(=O)c1cc2ncnc(Oc3ccc(NC(=S)NC(=O)Cc4ccccc4)cc3F)c2s1 [Example 26, 1-(4-(6-(N-Methoxy-N-methylcarbamoyl)thieno [3,2-d]pyrimidin-4-yloxy)-3-fluorophenyl)-3-(2-phenylacetyl)thiourea]

- IC50 (VEGF receptor KDR; [2]): 50 to 250 nM
- IC50 [1, 3]: 50 to 250 nM
SMILES: NC(=O)c1cc2ncnc(Oc3ccc(NC(=S)NC(=O)Cc4ccccc4)cc3F)c2s1 [Example 27, 1-(4-(6-Carbamoylthieno[3,2-d]pyrimidin-4-yloxy)-3-fluorophenyl)-3-(2-phenylacetyl)thiourea]

- IC50 (VEGF receptor KDR; [2]): 50 to 250 nM
SMILES: O=C(Cc1ccccc1)NC(=S)Nc1ccc(Oc2ccnc3ccsc23)c(F)c1 [Example 133, N-(3-Fluoro-4-(thieno[3,2-b]pyridin-7-yloxy)phenylcarbamothioyl)-2-phenylacetamide]
